The assay deals with Tetramitus flagellates. Nature of the assay: Microscopic observations of swimming behavior and morphology of Tetramitus flagellates during exposure. The assay is classed as cell-based, Tetramitus rostratus. Conditions: 10 μg/mL.

Consider one compound from US20040224379A1, “Method and apparatus for detection of toxic substances in a sample” (priority 2000, published 2004).

With `O=[N+]([O-])c1cc[n+]([O-])c2ccccc12` [4-nitroquinoline-n-oxide], the “Swarming Behavior” value by setting is: (exposure time 0.5 Hours) “Normal”; (exposure time 0.9 Hours) “Delayed”; (exposure time 8.7 Hours, cell wraps over rows: No Swarming) “No”. Besides, the “Swimming Velocity (% Slow)” value is, setting by setting: (exposure time 0.5 Hours, cell wraps: 10-20% Slow) 10-20%; (exposure time 0.9 Hours, cell wraps: 50-70% Slow) 50-70%; (exposure time 1.6 Hours, cell wraps: 100% Slow) 100%; (exposure time 4.5 Hours, cell wraps: 100% Slow) 100%. Moreover, the “Spinner Frequency” value is, setting by setting: (exposure time 0.5 Hours, cells rotating in a circular pattern) less than 1%; (exposure time 0.9 Hours) “˜5%”; (exposure time 1.6 Hours) 5-10%; (exposure time 4.5 Hours) 20%; (exposure time 8.7 Hours) 70-90%. For the same compound, the “Appearance of Larger Morphs” value (exposure time 0.5 Hours, larger cells with abnormally-formed rostrum and large vacuoles) is 1-5%; the “Appearance of Larger Morphs” value (exposure time 0.9 Hours) is on record as 5-10%; the “Appearance of Larger Morphs” value (exposure time 1.6 Hours) is 10-20%; the “Appearance of Larger Morphs” value (exposure time 4.5 Hours) stood at 50%; the “Appearance of Larger Morphs” value (exposure time 8.7 Hours, cell wraps: 100% Rounded cells with large vacuoles) came to 100% Rounded cells. Besides, the “Swimming Velocity” value (exposure time 8.7 Hours) is on record as “Very Slow”.
